Experimental data as given in patent publication US8987314B2, “Amide, urea or sulfone amide linked benzothiazole inhibitors of endothelial lipase” (Bristol-Myers Squibb Company, priority 2012, dated 2015).

What was measured:
[1] = target: Endothelial lipase (EL) (Homo sapiens (Human), UniProt Q9Y5X9); assay: EL assay: endothelial lipase activity with fluorescent substrate A10070 in DMPG vesicles; type: biochemical; settings: EL from conditioned media of HT-1080 cells; 30 min incubation with compound at 37° C.; A10070/DMPG vesicles
Endothelial lipase (EL), sequence (Q9Y5X9 21-500): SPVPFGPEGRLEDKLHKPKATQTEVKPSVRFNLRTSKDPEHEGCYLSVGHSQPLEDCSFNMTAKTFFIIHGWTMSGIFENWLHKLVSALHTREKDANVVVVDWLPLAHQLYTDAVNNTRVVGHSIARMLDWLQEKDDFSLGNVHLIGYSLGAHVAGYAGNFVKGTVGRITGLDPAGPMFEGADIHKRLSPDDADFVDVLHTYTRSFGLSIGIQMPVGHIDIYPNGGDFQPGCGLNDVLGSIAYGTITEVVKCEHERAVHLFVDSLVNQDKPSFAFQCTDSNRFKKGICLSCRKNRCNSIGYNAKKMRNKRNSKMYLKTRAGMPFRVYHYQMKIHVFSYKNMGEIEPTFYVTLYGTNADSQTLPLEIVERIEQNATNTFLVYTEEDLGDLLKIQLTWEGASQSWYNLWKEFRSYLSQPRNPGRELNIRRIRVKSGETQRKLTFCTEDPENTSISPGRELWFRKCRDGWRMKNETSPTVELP
How it was run: (§1)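 Compounds were preincubated with enzyme for 30 min at 37° C before FRET-substrate vesicles (A10070 in DMPG, 0.11 mole fraction) were added. Reaction rates were obtained from the 300–900 sec slope of fluorescence at 490/530 nm.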

[2] = target: hepatic lipase (HL) (Homo sapiens (Human), UniProt P11150); assay: HL assay: hepatic lipase activity with fluorescent substrate A10070 in DMPG vesicles; type: biochemical; settings: HL partially purified from conditioned media of COS cells; 30 min incubation with compound at 37° C.; A10070/DMPG vesicles
hepatic lipase (HL), sequence (P11150 23-499, species assumed): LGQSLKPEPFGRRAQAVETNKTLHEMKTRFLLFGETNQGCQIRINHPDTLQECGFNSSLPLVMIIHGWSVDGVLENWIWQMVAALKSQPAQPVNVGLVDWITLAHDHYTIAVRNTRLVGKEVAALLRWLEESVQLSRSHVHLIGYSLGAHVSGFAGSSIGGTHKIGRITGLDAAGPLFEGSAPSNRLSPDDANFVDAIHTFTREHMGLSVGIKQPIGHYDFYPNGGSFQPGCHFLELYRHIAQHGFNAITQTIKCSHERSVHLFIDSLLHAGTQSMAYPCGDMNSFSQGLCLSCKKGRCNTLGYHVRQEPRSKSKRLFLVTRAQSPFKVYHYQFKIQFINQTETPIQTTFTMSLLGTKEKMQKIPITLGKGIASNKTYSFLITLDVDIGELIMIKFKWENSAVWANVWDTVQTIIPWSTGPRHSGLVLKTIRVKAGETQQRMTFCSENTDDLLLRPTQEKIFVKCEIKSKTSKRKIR
How it was run: as §1

IC50 [1]: 109 nM | IC50 [2]: 460 nM
SMILES: CCNC(=O)CNC(=O)C(c1nc2ccc(-c3ccc(F)nc3)cc2s1)S(=O)(=O)CCOC (centres unmarked) [Example B397, N-[(ethylcarbamoyl)methyl]-2-[6-(6-fluoropyridin-3-yl)-1,3-benzothiazol-2-yl]-2-(2-methoxyethanesulfonyl)acetamide]
